Counter-ions that a name gives are not always drawn.
How the values were obtained:
[1] = tested on: irrelevant G-protein coupled receptor (GPCR); assay: G.Validation fluorescence assay on irrelevant GPCR control; format: biochemical; details: SDF1α 15 μM, AMD3100 100 μM, Example 60 150 μM; SB3L1
[2] = tested on: Male C57BL/6 Rj mice; assay: In vivo evaluation of CXCR4 antagonistic activity by mobilisation of blood cells; parameters: species or system mouse; details: 20 mg/kg single i.p., 2:30 h after injection; shown also for neutrophils, monocytes, lymphocytes, eosinophils
Description: Male C57BL/6 Rj mice (7 weeks old) were obtained from Janvier (Le Genest-Saint-Isle, France). Mice were treated by a single intraperitoneal (i.p.) administration at timepoint 0 h. The experimental groups (n=10) were defined as follows: • Mice of group 1 were treated with vehicle only (0.9% NaCl aqueous solution) • Mice of group 2 were treated with AMD3100 (CXCR4 antagonist, Sigma-Aldrich, St Louis, USA) at 20 mg/kg (volume of 10 mL/kg) in 0.9% NaCl aqueous solution • Mice of group 3 were treated with an exemplary compound of formula (I), i.e. Example 60, at 30 mg/kg (volume of 10 mL/kg) in 0.9% NaCl aqueous solution
After 2:30 h, whole blood (at least 200 μl, max 1 mL) was collected in EDTA tubes before sacrifice by an intracardiac puncture under isoflurane anaesthesia and haematology parameters were determined the same day by laser flow cytometry, optical fluorescence and Laminar Flow Impedance™ using the ProCyte Dx hematology analyser (IDEXX, Eau Claire, USA). Differential leukocyte counts were performed to quantify specific immune cell types. Data are reported as total number of cells (K/μL), mean±S.E.M., as well as the statistical significance versus the vehicle control group using unpaired t-tests.

[3] = molecular target: T1, Recombinant CXCR4 receptor (Homo sapiens, UniProt P61073); assay: G.Validation fluorescence assay of CXCR4 receptor conformational changes in lipidic micelles SB2L4 and SB3L1; format: biochemical; details: SB2L4 and SB3L1, 40 min
T1 construct: host or cells: HEK-293 T cells
Excerpt: G.Validation® assay is […] biotech proprietary fluorescence based assay that assesses conformational changes of a receptor upon activation/inactivation. Recombinant CXCR4 receptor is produced and purified from HEK-293 T cells using […] proprietary mixes. Receptor is then reconstituted in detergent buffers containing lipids mimicking the lipidic composition of dendritic cells (DC) and macrophages (SB2L4 and SB3L1). Thereafter, the receptor is labelled with a non-modifying probe allowing the detection of the activation state and conformational change of the receptor upon addition of a ligand. Indeed, the probe emission spectra maximum wavelength (Amax) shifts according to activation/inactivation of the receptor. Thus, kinetic of activation/inactivation of the receptor can be followed by monitoring Amax shift after addition of a ligand over time. Emission spectra were registered for 40 minutes after addition of each ligand. […] Activation/inactivation kinetics were also followed using an exemplary compound of formula (I), i.e.

[4] = tested on: peripheral blood mononuclear cells (PBMCs) from healthy donors; assay: IFN production by R848-activated PBMCs, quantified with twINNE luciferase reporter cell line; format: cell-based, human; details: Homo sapiens, PBMC; read-out: IC50 of anti-inflammatory activity (IFN production by activated PBMCs)
Outline: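 Functional IFN was quantified by luciferase output from the twINNE ISRE-reporter line after 24 h on conditioned supernatants. Those supernatants came from human PBMCs (4.10^6/mL) pre-treated with compound and then stimulated for 24 h with 5 μg/mL resiquimod. IC50s were fitted by nonlinear variable-slope regression.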

[5] = molecular target: T2, human CXCR4 (hCXCR4) receptor (Homo sapiens, UniProt P61073); assay: BRET assay of antagonist activity on the CXCR4-CXCL12 signaling pathway (Gαi2 recruitment) in HEK-293 T cells; format: cell-based; details: HEK-293 T cells with hCXCR4, Gαi2 and BRET biosensors; 10 min with compound, then EC80 CXCL12
T2 construct: expressed in transfected cells; host or cells: HEK-293 T cells, transient co-transfection with polyethylenimine
Description: Examples of the present invention were tested for their antagonist activity on human CXCR4 (hCXCR4) receptor transiently over-expressed in HEK-293 T cells. Compounds exert antagonist activity if they decrease the action of CXCL12 on the receptor.
The specific effector (luciferase tagged: BRET donor) recruited at the membrane will be in close proximity to a plasma membrane anchor (GFP tagged: BRET acceptor) to induce a BRET signal (Hamdan et a1, 2006, Chapter 5, Current Protocols in Neuroscience).
HEK-293 T cells are maintained in Dulbecco's Modified Eagle's Medium supplemented with 10% Foetal Calf Serum, 1% Penicillin/Streptomycin at 37° C./5% CO2. Cells are co-transfected using polyethylenimine (25 kDa linear) with several DNA plasmids encoding: hCXCR4; Gai2; an intracellular effector fused to luciferase (BRET donor); a plasma membrane effector fused to GFP (BRET acceptor). After transfection, cells are cultured for 48 h at 37° C./5% CO2. On the day of the assay, cells are detached using trypsin 0.05%, resuspended in assay buffer (1.8 mM CaCl2, 1 mM MgCl2, 2.7 mM KCl, 137 mM NaCl, 0.4 mM NaH2PO4, 5.5 mM D-Glucose, 11.9 mM NaHCO3, 25 mM Hepes) and seeded in 384 well plate at a density of 20,000 cells per well. Then, plates are equilibrated 3.5 h at 37° C. before adding compounds. Compounds and luciferase substrate are added to the cells using an automated device (Freedom Evo®, Tecan) and BRET readings are collected on EnVision (PerkinElmer) with specific filters (410 nm BW 80 nm, 515 nm BW 30 nm).
Cells are first incubated for 10 minutes with the compound alone. Then, cells are stimulated by an EC80 CXCL12 concentration for additional 10 minutes and luminescence is recorded. EC80 CXCL12 concentration is the concentration giving 80% of the maximal CXCL12 response. Antagonist activity is evaluated in comparison to basal signals evoked by EC80 CXCL12 alone.
For IC50 determination, a dose-response test is performed using 20 concentrations (ranging over 6 logs) of each compound. Dose-response curves are fitted using the sigmoidal dose-response (variable slope) analysis in GraphPad Prism software (GraphPad Software) and IC50 of antagonist activity is calculated. Dose-response experiments are performed in duplicate, in two independent experiments.
HEK-293 T cells were transfected to allow measuring the recruitment of Gai2 proteins involved in intracellular signaling by human CXCR4 receptor (hCXCR4) via the BRET technology. Cells were then incubated with various concentrations of examples of the invention before stimulation with an EC80 concentration of CXCL12.

[6] = tested on: monocytes from healthy donors; assay: Intracellular TNFα, IL-6 and IL-1β production by R848-activated monocytes after CXCR4 siRNA knockdown or AMD3100 block (flow cytometry); format: cell-based, human
Excerpt: The blood from healthy donors was obtained from “Etablissement Français du Sang” (convention #19/EFS/029), Paris, France.
Peripheral blood mononuclear cells (PBMCs) were isolated by density centrifugation from peripheral blood leukocyte separation medium, lymphoprep (Stemcell Technologies, Vancouver, Canada).
Monocytes used for in vitro experiments as described in part C/D were purified by positive selection with human CD14 microbeads (Miltenyi Biotec, Bergisch Gladbach, Germany) from PBMCs.
Monocytes were cultured in RPMI 1640 (Sigma-Aldrich, St Louis, USA) containing 10% heat-inactivated Fetal Bovine Serum (FBS, Sigma-Aldrich, St Louis, USA) at 37° C./5% CO2.
PBMCs and monocytes used herein were prepared as described in part A ‘Immune cells preparation’, above. Monocytes as prepared in part C ‘In vitro knockdown using siRNA or CXCR4 antagonist treatment’ and D ‘Quantification of TNFα, IL-6 and IL1β productions’ were incubated with one exemplary compound of formula (I), i.e. […] Monocytes were analysed by flow cytometry. For intracellular TNFα, IL-6 and IL-1p labelling as described in Part D ‘Quantification of TNFα, IL-6 and IL-1β productions’, Brefeldin A (BFA) was added to the cells 30 minutes after R848 stimulation.
Isolated monocytes were seeded at 10^5 cells/100 μL in 96-well plates and incubated at 37° C.
Monocytes were then treated with small interfering RNA (siRNA) which target the chemokine receptor CXCR4 mRNA (siCXCR4) (Smart Pool, Dharmacon, Lafayette, USA), or with control siRNAs (siCTL) and coupled to a transfection agent DOTAP (Roche Applied Science, Penzberg, Germany). The mix was gently mixed and incubated at room temperature for 15 minutes. After incubation, the mix was added to cells in culture at a final concentration of 160 nM. Finally, cells were incubated at 37° C. for 24 hours.
Alternatively, monocytes were treated after seeding with the CXCR4 antagonist AMD3100 (Sigma-Aldrich, USA) at 20 μM for 1 hour.
Monocytes as treated in part C, were washed in phosphate-buffered saline (PBS) and incubated with a viability marker (Zombie Aqua, Biolegend, San Diego, USA) for 30 minutes at room temperature. After washing, cells were resuspended in PBS containing 2% FBS and 2 mM ethylenediaminetetraacetic acid (EDTA) and labelled with anti-CD14 antibody (clone REA599, Miltenyi Biotech, Bergisch Gladbach, Germany), used at 1:100. For intracellular labelling of TNFα, IL-6 and IL-1β, the “Inside Stain” kit (Miltenyi Biotec, Bergisch Gladbach, Germany) was used according to the manufacturer's protocol. Cells were fixed for 20 minutes at room temperature with 250 μL of Inside Fix solution and then labelled in 100 μL of Inside Perm solution containing anti-TNFα antibody (clone cA2), anti-IL-6 antibody (clone REA1037) or anti-IL-1p antibody (clone REA1172) at 1/500 for 30 minutes at room temperature (all from Miltenyi Biotec, Bergisch Gladbach, Germany). Data acquisition was performed on the Canto II flow cytometer using Diva software (BD Biosciences, San Jose, USA). FlowJo software was used to analyse the data.

[7] = AMD3100 20 μM, Example 77 10, 50 and 500 nM, R848

T1 sequence (P61073 whole entry): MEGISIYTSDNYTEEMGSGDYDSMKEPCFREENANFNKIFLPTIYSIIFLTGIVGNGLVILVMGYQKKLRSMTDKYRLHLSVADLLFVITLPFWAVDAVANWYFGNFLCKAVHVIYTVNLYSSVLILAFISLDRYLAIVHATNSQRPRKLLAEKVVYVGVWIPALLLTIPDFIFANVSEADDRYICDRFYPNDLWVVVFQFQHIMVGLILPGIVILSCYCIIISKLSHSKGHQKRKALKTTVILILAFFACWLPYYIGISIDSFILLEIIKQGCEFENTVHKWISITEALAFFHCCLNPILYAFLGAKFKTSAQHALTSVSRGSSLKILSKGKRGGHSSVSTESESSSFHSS
T2 sequence (P61073 whole entry): as above

Row | CXCR4 structural activation/inactivation, Amax shift in fluorescence ([3]; ligand 100 μM added after Example 60 150 μM) | CXCR4 structural activation/inactivation, Amax shift in fluorescence ([3]; ligand 100 μM added after SDF1α 15 μM) | IC50 [5] | Structure (SMILES) | irrelevant GPCR activation state, Amax shift in fluorescence [1] | numbers of white blood cells in the blood vs vehicle control [2] | IC50 [4] | IL-1β production by activated monocytes in the presence of Example 77 with CXCR4 blocked by AMD3100 [6, 7] | TNFα production by activated monocytes in the presence of Example 77 with CXCR4 blocked by AMD3100 [6, 7] | IL-1β production by activated monocytes in the presence of Example 77 after CXCR4 siRNA ([6]; siCXCR4 vs siCTL, Example 77 50 nM, R848 1 μg/mL, % IL-1β positive cells) | IL-6 production by activated monocytes in the presence of Example 77 after CXCR4 siRNA ([6]; siCXCR4 vs siCTL, Example 77 50 nM, R848 1 μg/mL, % IL-6 positive cells) | TNFα production by activated monocytes in the presence of Example 77 after CXCR4 siRNA ([6]; siCXCR4 vs siCTL, Example 77 50 nM, R848 1 μg/mL, % TNFα positive cells)
1 | did not reverse Example 60 effect | reversed SDF1α effect with a blue shift |  | c1cc(CN2CCCNCCNCCCNCC2)ccc1CN1CCCNCCNCCCNCC1 [AMD3100, plerixafor, reference compound] | Neither benchmark ligands SDF1α and AMD3100, nor Example 60 showed any effect | significantly higher |  |  |  |  |  | 
2 |  |  | ≥ 15 µM | c1ccc2c(c1)CN=C(SCCN1CCCC1)N2 [Example 77, 2-((2-(pyrrolidin-1-yl)ethyl)thio)-1,4-dihydroquinazoline dihydrochloride] |  |  | ≤ 10 µM | restored | restored | restored | restored | restored

— patent publication US20240018125A1, “CYCLIC ISOTHIOUREA DERIVATIVES AS CXCR4 MODULATORS” (ERMIUM THERAPEUTICS, priority 2020, published 2024)
